Laboratory results as given in the NIST ThermoML archive (doi:10.1021/acs.jced.5b00717).

Experiment: an = ratio of the nth substance listed
Settings: 101 kPa, Liquid; for mass density: Vibrating tube method; for viscosity: rotating cylinders

C[N+](C)(C)CCO.[Cl-] [choline chloride] + OCC(O)CO
Settings | mass density, a2 = 2 [kg/m3] | mass density, a2 = 4 [kg/m3] | viscosity, a2 = 2 [mPa·s] | viscosity, a2 = 4 [mPa·s]
293.15 K | 1194 | 1217 | 514.6 | 578.2
298.15 K | 1191 | 1214 | 365.7 | 400.3
303.15 K | 1188 | 1211 | 265.7 | 283.4
308.15 K | 1185 | 1208 | 197 | 205.1
313.15 K | 1183 | 1205 | 148.9 | 151.7
318.15 K | 1180 | 1202 | 114.7 | 113
323.15 K | 1177 | 1200 | 89.81 | 87.96

C[N+](C)(C)C.[Cl-] [tetramethylammonium chloride] + OCC(O)CO
Settings | mass density, a2 = 2 [kg/m3] | mass density, a2 = 4 [kg/m3] | viscosity, a2 = 2 [mPa·s] | viscosity, a2 = 4 [mPa·s]
293.15 K | 1158 | 1180 | 581.8 | 557.5
298.15 K | 1155 | 1177 | 406.9 | 384.7
303.15 K | 1152 | 1174 | 290.5 | 272
308.15 K | 1149 | 1171 | 212.4 | 197
313.15 K | 1147 | 1168 | 158.5 | 145.8
318.15 K | 1144 | 1166 | 120.7 | 110.2
323.15 K | 1141 | 1163 | 93.57 | 84.8
